Here are results for 28 compounds from patent US20260285846A1, “REV-ERB AGONISTS FOR TH17-MEDIATED INFLAMMATORY DISORDERS” (UNIVERSITY OF FLORID RESEARCH FOUNDATION, iNCORPORATED, priority 2021, published 2026).

The target in this experiment is REV-ERBα LBD (Homo sapiens, UniProt P20393, DEL324-422). The experiment can be described thus: biochemical. To be noted: FRET assay; 6xHistag-REV-ERBα LBD with FITC-labeled SMRT corepressor peptide; read-out: REVERBα (Agonism of REV-ERBα, EC50). A digest of the protocol: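 TR-FRET corepressor recruitment: 4 nM His-tagged human REV-ERBα LBD (residues 281-614 Δ324-422, or 381-579), 1 nM Tb-anti-His antibody and 400 nM FITC-SMRT peptide in pH 7.4 phosphate buffer with DTT; ligands in triplicate, 2 h at 4° C. 520/495 nm ratio fitted to sigmoidal dose-response for EC50.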
REV-ERBα LBD, sequence (P20393 with tags, fused parts or gaps DEL324-422): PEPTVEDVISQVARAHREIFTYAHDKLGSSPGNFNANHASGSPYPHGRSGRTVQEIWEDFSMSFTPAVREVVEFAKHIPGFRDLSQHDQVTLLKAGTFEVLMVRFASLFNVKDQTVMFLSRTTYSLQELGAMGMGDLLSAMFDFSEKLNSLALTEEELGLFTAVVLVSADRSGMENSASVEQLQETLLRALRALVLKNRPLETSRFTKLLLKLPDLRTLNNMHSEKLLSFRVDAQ
REV-ERBα LBD, sequence (Q9Y618 2335-2356 partner limits assumed): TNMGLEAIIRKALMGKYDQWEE
Turning to `CC(C)(C)Cn1cc([C@H](NS(=O)(=O)C2CC2)C(F)F)c2ccc(-c3c(C(F)(F)F)ccnc3C#N)cc21` [Compound 82, (S)—N-(1-(6-(2-cyano-4-(trifluoromethyl)pyridin-3-yl)-1-neopentyl-1H-indol-3-yl)-2,2-difluoroethyl)cyclopropanesulfonamide], the EC50 (as a rule, the concentration giving half of the maximal effect) is less than 100 nM. As to `CC(C)(C)Cn1cc([C@H](NS(=O)(=O)C2CC2)C(F)F)c2ccc(-c3ncccc3F)cc21` [Compound 83, (S)—N-(2,2-difluoro-1-(6-(3-fluoropyridin-2-yl)-1-neopentyl-1H-indol-3-yl)ethyl)cyclopropanesulfonamide], the half-maximal effective concentration (EC50) is less than 100 nM. Regarding `CC(C)(C)Cn1cc([C@H](NS(=O)(=O)C2CC2)C(F)F)c2ccc(-c3ncc(F)cc3F)cc21` [Compound 84, (S)—N-(1-(6-(3,5-difluoropyridin-2-yl)-1-neopentyl-1H-indol-3-yl)-2,2-difluoroethyl)cyclopropanesulfonamide], the EC50 is less than 100 nM. With `CC(C)(C)Cn1cc([C@H](NS(=O)(=O)C2CC2)C(F)F)c2ccc(-c3ncccc3Cl)cc21` [Compound 85, (S)—N-(1-(6-(3-chloropyridin-2-yl)-1-neopentyl-1H-indol-3-yl)-2,2-difluoroethyl)cyclopropanesulfonamide], the EC50 is less than 100 nM.

In the case of `CC(C)(C)Cn1cc([C@H](NS(=O)(=O)C2CC2)C(F)F)c2ccc(-c3cc(F)cnc3C#N)cc21` [Compound 86, (S)—N-(1-(6-(2-cyano-5-fluoropyridin-3-yl)-1-neopentyl-1H-indol-3-yl)-2,2-difluoroethyl)cyclopropanesulfonamide], the EC50 was less than 100 nM. To `CC(C)(C)Cn1cc([C@H](NS(=O)(=O)C2CC2)C(F)F)c2ccc(-c3cccnc3C(F)F)cc21` [Compound 87, (S)—N-(1-(6-(2-(difluoromethyl)pyridin-3-yl)-1-neopentyl-1H-indol-3-yl)-2,2-difluoroethyl)cyclopropanesulfonamide] belongs less than 100 nM; to `CC(C)(C)Cn1cc([C@H](NS(=O)(=O)C2CC2)C(F)F)c2ccc(-c3ncc(F)cc3C#N)cc21` [Compound 88, (S)—N-(1-(6-(3-cyano-5-fluoropyridin-2-yl)-1-neopentyl-1H-indol-3-yl)-2,2-difluoroethyl)cyclopropanesulfonamide], less than 100 nM. To `CC(C)(C)Cn1cc([C@H](NS(=O)(=O)C2CC2)C(F)F)c2cc(F)c(-c3ncccc3F)cc21` [Compound 89, (S)—N-(2,2-difluoro-1-(5-fluoro-6-(3-fluoropyridin-2-yl)-1-neopentyl-1H-indol-3-yl)ethyl)cyclopropanesulfonamide] belongs less than 100 nM; to `CC(C)(C)Cn1cc([C@H](NS(=O)(=O)C2CC2)C(F)F)c2cc(F)c(-c3ncccc3Cl)cc21` [Compound 90, (S)—N-(1-(6-(3-chloropyridin-2-yl)-5-fluoro-1-neopentyl-1H-indol-3-yl)-2,2-difluoroethyl)cyclopropanesulfonamide], less than 100 nM; to `CC(C)(C)Cn1cc([C@H](NS(=O)(=O)C2CC2)C(F)F)c2cc(F)c(-c3ncc(F)cc3F)cc21` [Compound 91, (S)—N-(1-(6-(3,5-difluoropyridin-2-yl)-5-fluoro-1-neopentyl-1H-indol-3-yl)-2,2-difluoroethyl)cyclopropanesulfonamide], less than 100 nM. The result for `CC(C)(C)Cn1cc([C@H](NS(=O)(=O)C2CC2)C(F)F)c2cc(F)c(-c3ncc(Cl)cc3F)cc21` [Compound 92, (S)—N-(1-(6-(5-chloro-3-fluoropyridin-2-yl)-5-fluoro-1-neopentyl-1H-indol-3-yl)-2,2-difluoroethyl)cyclopropanesulfonamide] reads less than 100 nM; that for `CC(C)(C)Cn1cc([C@H](NS(=O)(=O)C2CC2)C(F)F)c2cc(F)c(-c3ncc(F)cc3Cl)cc21` [Compound 93, (S)—N-(1-(6-(3-chloro-5-fluoropyridin-2-yl)-5-fluoro-1-neopentyl-1H-indol-3-yl)-2,2-difluoroethyl)cyclopropanesulfonamide], less than 100 nM. In the case of `CC(C)(C)Cn1cc([C@H](NS(=O)(=O)C2CC2)C(F)F)c2cc(F)c(-c3ncc(F)cc3C#N)cc21` [Compound 94, (S)—N-(1-(6-(3-cyano-5-fluoropyridin-2-yl)-5-fluoro-1-neopentyl-1H-indol-3-yl)-2,2-difluoroethyl)cyclopropanesulfonamide], the EC50 is less than 100 nM. As to `Cc1ncc(F)cc1-c1cc2c(cc1F)c([C@H](NS(=O)(=O)C1CC1)C(F)F)cn2CC(C)(C)C` [Compound 95, (S)—N-(2,2-difluoro-1-(5-fluoro-6-(5-fluoro-2-methylpyridin-3-yl)-1-neopentyl-1H-indol-3-yl)ethyl)cyclopropanesulfonamide], the 50% effective concentration (EC50) is less than 100 nM. Turning to `CC(C)(C)Cn1cc([C@H](NS(=O)(=O)C2CC2)C(F)F)c2cc(F)c(-c3cc(F)cnc3C#N)cc21` [Compound 96, (S)—N-(1-(6-(2-cyano-5-fluoropyridin-3-yl)-5-fluoro-1-neopentyl-1H-indol-3-yl)-2,2-difluoroethyl)cyclopropanesulfonamide], the EC50 is less than 100 nM. Turning to `CC(C)(C)Cn1cc([C@H](NS(=O)(=O)C2CC2)C(F)F)c2cc(F)c(-c3cccnc3C(F)F)cc21` [Compound 97, (S)—N-(1-(6-(2-(difluoromethyl)pyridin-3-yl)-5-fluoro-1-neopentyl-1H-indol-3-yl)-2,2-difluoroethyl)cyclopropanesulfonamide], the EC50 was less than 100 nM.

As for `CC(C)(C)Cn1cc([C@H](NS(=O)(=O)C2CC2)C(F)F)c2cc(F)c(-c3c(C(F)(F)F)ccnc3C#N)cc21` [Compound 99, N-((1S)-1-(6-(2-cyano-4-(trifluoromethyl)pyridin-3-yl)-5-fluoro-1-neopentyl-1H-indol-3-yl)-2,2-difluoroethyl)cyclopropanesulfonamide], the EC50 was less than 100 nM. The result for `CC(C)(C)Cn1cc([C@H](NS(=O)(=O)C2CC2)C(F)F)c2ccc(-c3ncccc3C(F)F)cc21` [Compound 100, (S)—N-(1-(6-(3-(difluoromethyl)pyridin-2-yl)-1-neopentyl-1H-indol-3-yl)-2,2-difluoroethyl)cyclopropanesulfonamide] reads less than 100 nM; that for `CC(C)(C)Cn1cc([C@H](NS(=O)(=O)C2CC2)C(F)F)c2ccc(-c3ncccc3C3CC3)cc21` [Compound 101, (S)—N-(1-(6-(3-cyclopropylpyridin-2-yl)-1-neopentyl-1H-indol-3-yl)-2,2-difluoroethyl)cyclopropanesulfonamide], less than 100 nM; that for `CC(C)(C)Cn1cc([C@H](NS(=O)(=O)C2CC2)C(F)F)c2ccc(-c3ccncc3C(F)(F)F)cc21` [Compound 102, (S)—N-(2,2-difluoro-1-(1-neopentyl-6-(3-(trifluoromethyl)pyridin-4-yl)-1H-indol-3-yl)ethyl)cyclopropanesulfonamide], less than 100 nM.

Consider `CC(C)(C)Cn1cc([C@H](NS(=O)(=O)C2CC2)C(F)F)c2ccc(-c3c(C#N)cccc3C(F)F)cc21` [Compound 103, (S)—N-(1-(6-(2-cyano-6-(difluoromethyl)phenyl)-1-neopentyl-1H-indol-3-yl)-2,2-difluoroethyl)cyclopropanesulfonamide], for which the EC50 was less than 100 nM. To `CC(C)(C)Cn1cc([C@H](NS(=O)(=O)C2CC2)C(F)F)c2ccc(-c3c(F)cccc3C(F)F)cc21` [Compound 104, (S)—N-(1-(6-(2-(difluoromethyl)-6-fluorophenyl)-1-neopentyl-1H-indol-3-yl)-2,2-difluoroethyl)cyclopropanesulfonamide] belongs less than 100 nM.

Consider `CC(C)(C)Cn1cc([C@H](NS(=O)(=O)C2CC2)C(F)F)c2ccc(-c3ccc(F)cc3C(F)F)cc21` [Compound 105, (S)—N-(1-(6-(2-(difluoromethyl)-4-fluorophenyl)-1-neopentyl-1H-indol-3-yl)-2,2-difluoroethyl)cyclopropanesulfonamide], for which the EC50 was less than 100 nM.

Turning to `CC(C)(C)Cn1cc([C@H](NS(=O)(=O)C2CC2)C(F)F)c2ccc(-c3c(C(F)(F)F)ccc[n+]3[O-])cc21` [Compound 106, (S)-2-(3-(1-(cyclopropanesulfonamido)-2,2-difluoroethyl)-1-neopentyl-1H-indol-6-yl)-3-(trifluoromethyl)pyridine 1-oxide], the EC50 lay in the range of 100 to 1000 nM.

For the compound `CC(C)(C)Cn1cc([C@H](NS(=O)(=O)C2CC2)C(F)F)c2ccc(-c3c[n+]([O-])ccc3C(F)(F)F)cc21` [Compound 107, (S)-3-(3-(1-(cyclopropanesulfonamido)-2,2-difluoroethyl)-1-neopentyl-1H-indol-6-yl)-4-(trifluoromethyl)pyridine 1-oxide], the EC50 was less than 100 nM. To `CC(C)(C)Cn1cc([C@H](NS(=O)(=O)C2CC2)C(F)F)c2cc(F)c(-c3c(C#N)cccc3C(F)(F)F)cc21` [Compound 108, N-((1S)-1-(6-(2-cyano-6-(trifluoromethyl)phenyl)-5-fluoro-1-neopentyl-1H-indol-3-yl)-2,2-difluoroethyl)cyclopropanesulfonamide] belongs less than 100 nM; to `CC(C)(C)Cn1cc([C@H](NS(=O)(=O)C2CC2)C(F)F)c2cc(F)c(-c3c(C#N)cccc3C(F)F)cc21` [Compound 109, N-((1S)-1-(6-(2-cyano-6-(difluoromethyl)phenyl)-5-fluoro-1-neopentyl-1H-indol-3-yl)-2,2-difluoroethyl)cyclopropanesulfonamide], less than 100 nM; to `CC(C)(C)Cn1cc([C@H](NS(=O)(=O)C2CC2)C(F)F)c2cc(F)c(-c3ccc(C#N)nc3C(F)(F)F)cc21` [Compound 110, (S)—N-(1-(6-(6-cyano-2-(trifluoromethyl)pyridin-3-yl)-5-fluoro-1-neopentyl-1H-indol-3-yl)-2,2-difluoroethyl)cyclopropanesulfonamide], less than 100 nM.
